# From patent US20120302609A1, “Pyrazolines for the Modulation of PKM2” (Dynamix Pharmaceuticals LTD., priority 2011, published 2012)
# “And” between values parts separate entries of the source, which are not always exact repeats. Identical values can stand only once.
# Tested on: H1299 Human Non-Small Cell Lung Carcinoma
# Test: H1299 human non-small cell lung carcinoma nude mouse xenograft model, tumor growth delay
# Assay type: in vivo, mice
# Experimental: The animals were fed ad libitum water (reverse osmosis, 1 ppm Cl) and NIH 31 Modified and Irradiated Lab Diet® consisting of 18.0% crude protein, 5.0% crude fat, and 5.0% crude fiber. The mice were housed on irradiated Enrich-o′ Cobs™ Laboratory Animal Bedding in static microisolators on a 12-hour light cycle at 20-22° C. (68-72° F.) and 40-60% humidity.
# H1299 (NCI-H1299) NSCLC cells were obtained from the American Type Culture Collection, which reports the cell line to have originated from a lymph node metastasis and to lack p53 expression. The cell line was maintained as exponentially growing cultures in RPMI-1640 medium supplemented with 10% fetal bovine serum, 2 mM glutamine, 100 units/mL penicillin G sodium, 100 μg/mL streptomycin sulfate, 25 μg/mL gentamicin, 10 mM HEPES, and 0.075% sodium bicarbonate. The tumor cells were cultured in tissue culture flasks in a humidified incubator at 37° C., in an atmosphere of 5% CO2 and 95% air.
# H1299 tumor cells were harvested during log phase growth and suspended in cold PBS. Each nude mouse was inoculated subcutaneously in the right flank with 0.2 mL of the cell suspension (1×10^7 cells). The tumors were periodically calipered in two dimensions to monitor size as the mean volume approached the desired 90-130 mm^3 range. Tumor size was calculated by the following formula:
# where w=width and l=length, in mm, of the tumor. Tumor weight may be estimated with the assumption that 1 mg is equivalent to 1 mm^3 of tumor volume.
# Compound 13A (MW 467.51, code-named XT26) was provided as a powder stored at −20° C., and protected from light during storage and handling. Dosing suspensions, in 0.5% carboxymethyl cellulose and 1% Tween® 80 in deionized water (Vehicle), were prepared fresh for each dose, and kept at 4° C. post formulation. Gemcitabine (Gemzar®, Lilly, 38 mg/mL, Lot # A866884A) was stored at room temperature. A fresh 12 mg/mL gemcitabine dosing solution was prepared on each treatment day by diluting an aliquot of the stock solution with saline.
# Dosing began on D1 in four groups of mice (n=12/group in Groups 1, 3, and 4; n=6 in Group 2). XT26 and its vehicle were administered intraperitoneally (i.p.) twice daily for 28 days (b.i.d.×28), starting with the p.m. dose on D1 and ending with the a.m. dose on D29. Gemcitabine was administered i.p. once daily at three-day intervals for four doses (q3d×4). In all groups, the dosing volume of 10 ml/kg (0.2 ml/20 g mouse) was scaled to the weight of each individual animal, as measured twice weekly.
# Group 1 mice received the XT26 vehicle b.i.d.×28, and served as the controls for the study. Group 2 received gemcitabine at 120 mg/kg. Group 3 was to receive XT26 at 100 mg/kg b.i.d.×28; on D21, four mice (Animals 1, 3, 4, and 5) erroneously received 200 mg/kg XT26 for their a.m. dose. […] Group 4 dosing at 200 mg/kg resumed on D17 on a qd (once daily)×13 dosing schedule. Because of a scheduling error, the D19 dose for Group 4 mice was omitted; qd dosing occurred on Days 17, 18, and 20-28.
# Tumors were calipered twice weekly for the duration of the study, and each animal was euthanized when its neoplasm reached the predetermined endpoint volume (1200 mm^3) or at the end of the study, whichever came first. Animals that exited the study for tumor growth were documented as euthanized for tumor progression (TP), with the date of euthanasia. The time to endpoint (TTE) for each mouse was calculated by the following equation: […]
# where TTE is expressed in days, endpoint volume is expressed in mm^3, b is the intercept, and m is the slope of the line obtained by linear regression of a log-transformed tumor growth data set.
# [1] = Group 1 vs 3: XT26 ip bid × 28, 100 mg/kg
# [2] = XT26 200 mg/kg ip bid × 8, then qd
# [3] = XT26 200 mg/kg ip bid × 8, then qd on Days 17, 18, 20-28
smiles,measurement,setting,value
"COc1ccc([C@@H]2CC(c3ccc(NS(=O)(=O)c4ccc(F)cc4)cc3)=NN2C(C)=O)cc1 [Compound 13A, (S)—N-(4-(1-acetyl-5-(4-methoxyphenyl)-4,5-dihydro-1H-pyrazol-3-yl)phenyl)-4-fluorobenzenesulfonamide]",Are the survival curves sig different?,[1],Yes
same,Hazard Ratio,[1],2.315
same,Median survival Ratio,Group 1 vs 3: vehicle / XT26 100 mg/kg,0.8022
same,% TGD,XT26 100 mg/kg ip bid × 28,24%
same,Regressions CR,XT26 100 mg/kg ip bid × 28,0
same,Regressions PR,XT26 100 mg/kg ip bid × 28,0
same,Regressions TFS,XT26 100 mg/kg ip bid × 28,0
same,Median TTE,"XT26 100 mg/kg ip bid × 28, endpoint 1200 mm^3, 28-day study",23.2 days
same,MTV (n) Day 28,"XT26 100 mg/kg ip bid × 28, median tumor volume of animals not at endpoint (n in brackets), 100 mg/kg",1080 mm^3 and 1080 (3) mm^3
same,T − C,"XT26 100 mg/kg ip bid × 28, vs Group 1 vehicle",4.5 days
same,Regressions CR,[2],0
same,Regressions PR,[2],0
same,Regressions TFS,[2],0
same,% TGD,[3],13%
same,T − C,[3],2.5 days
same,Median TTE,"XT26 200 mg/kg ip bid × 8, then qd on Days 17, 18, 20-28, n = 9",21.2 days
same,MTV (n) Day 28,"XT26 200 mg/kg ip bid × 8, then qd, animals not at endpoint (n in brackets), 200 mg/kg",527 mm^3 and 527 (1) mm^3
same,Median survival,"XT26 ip bid × 28, 100 mg/kg (Column B = treated group)",23.25
same,survival advantage relative to the vehicle treatment,"discontinuous 200 mg/kg XT26 therapy, five mice remaining after D10",little or no survival advantages
